How the values were obtained:
[1] = test system: IgE antibodies in sera from birch pollen allergic patients; experiment: ELISA detection of peptide- and rBet v 1-specific IgE antibodies; assay type: binding, human
Procedure: Birch pollen allergic patients suffering from allergic rhinoconjunctivitis and/or asthma to birch pollen and related allergens were selected according to case history indicative for seasonal birch pollinosis and characterized by skin prick testing with birch pollen extract and serological CAP RAST (Pharmacia Diagnostics, Uppsala, Sweden) testing. Total IgE levels in the sera were determined by CAP RIST measurements (Pharmacia). […] Sera from 60 birch pollen allergic patients and a non-atopic individual were used for IgE competition studies. The birch pollen allergic patients group consisted of 25 males and 35 females with a mean age of 37 years (ranging from 19-60 years) (Table 2).
Subsequently, plates were incubated with 1:3 diluted sera from 60 birch pollen allergic patients and from a non-atopic individual overnight at 4° C. Bound IgE antibodies were detected with a 1:1000 diluted alkaline-phosphatase-coupled mouse monoclonal anti-human IgE antibody (Pharmingen, San Diego, Calif.).

[2] = test system: birch pollen allergic patients; experiment: Skin prick testing of allergic patients; assay type: in vivo, human; conditions: 100 μg/ml
Procedure: SPTs were performed on the individuals forearms as described ([…]. et al. (1997) J. Clin Invest. 99, 1673-168; Dreborg S: (1989) J. Am. Acad. DerMatol. 21, 820-821). […] In addition standardized skin prick solutions (birch pollen extract and histamine) (Allergopharma, Reinbek, Germany) were tested. Reactions were recorded 20 minutes after SPT by photography and by transferring the ballpoint pen-surrounded wheal area with a scotch tape to paper.

Sequence: MGVFNYETETTSVIPAARLFKAFIC [Peptide P1, Bet v 1-derived synthetic peptide, position aa 1-24, one cysteine added]
- IgE (OD) ([1]; serum of NHS, non-allergic control individual): — (Dashes indicate reactivities below the cut-off level (OD=0.050))
- IgE (OD) ([1]; serum of patient 1): — (Dashes indicate reactivities below the cut-off level (OD=0.050))
- IgE (OD) ([1]; serum of patient 2): — (Dashes indicate reactivities below the cut-off level (OD=0.050))
- IgE (OD) ([1]; serum of patient 3): — (Dashes indicate reactivities below the cut-off level (OD=0.050))
- IgE (OD) ([1]; serum of patient 4): — (Dashes indicate reactivities below the cut-off level (OD=0.050))
- IgE (OD) ([1]; serum of patient 5): — (Dashes indicate reactivities below the cut-off level (OD=0.050))
- IgE (OD) ([1]; serum of patient 6): — (Dashes indicate reactivities below the cut-off level (OD=0.050))
- IgE (OD) ([1]; serum of patient 7): — (Dashes indicate reactivities below the cut-off level (OD=0.050))
- IgE (OD) ([1]; serum of patient 8): — (Dashes indicate reactivities below the cut-off level (OD=0.050))
- IgE (OD) ([1]; serum of patient 9): — (Dashes indicate reactivities below the cut-off level (OD=0.050))
- IgE (OD) ([1]; serum of patient 10): — (Dashes indicate reactivities below the cut-off level (OD=0.050))
- IgE (OD) ([1]; serum of patient 11): — (Dashes indicate reactivities below the cut-off level (OD=0.050))
- IgE (OD) ([1]; serum of patient 12): — (Dashes indicate reactivities below the cut-off level (OD=0.050))
- IgE (OD) ([1]; serum of patient 13): — (Dashes indicate reactivities below the cut-off level (OD=0.050))
- IgE (OD) ([1]; serum of patient 14): — (Dashes indicate reactivities below the cut-off level (OD=0.050))
- IgE (OD) ([1]; serum of patient 15): — (Dashes indicate reactivities below the cut-off level (OD=0.050))
- IgE (OD) ([1]; serum of patient 16): — (Dashes indicate reactivities below the cut-off level (OD=0.050))
- IgE (OD) ([1]; serum of patient 17): — (Dashes indicate reactivities below the cut-off level (OD=0.050))
- IgE (OD) ([1]; serum of patient 18): — (Dashes indicate reactivities below the cut-off level (OD=0.050))
- IgE (OD) ([1]; serum of patient 19): — (Dashes indicate reactivities below the cut-off level (OD=0.050))
- IgE (OD) ([1]; serum of patient 20): — (Dashes indicate reactivities below the cut-off level (OD=0.050))
- IgE (OD) ([1]; serum of patient 21): — (Dashes indicate reactivities below the cut-off level (OD=0.050))
- IgE (OD) ([1]; serum of patient 22): — (Dashes indicate reactivities below the cut-off level (OD=0.050))
- IgE (OD) ([1]; serum of patient 23): — (Dashes indicate reactivities below the cut-off level (OD=0.050))
- IgE (OD) ([1]; serum of patient 24): — (Dashes indicate reactivities below the cut-off level (OD=0.050))
- IgE (OD) ([1]; serum of patient 25): — (Dashes indicate reactivities below the cut-off level (OD=0.050))
- IgE (OD) ([1]; serum of patient 26): — (Dashes indicate reactivities below the cut-off level (OD=0.050))
- IgE (OD) ([1]; serum of patient 27): — (Dashes indicate reactivities below the cut-off level (OD=0.050))
- IgE (OD) ([1]; serum of patient 28): — (Dashes indicate reactivities below the cut-off level (OD=0.050))
- IgE (OD) ([1]; serum of patient 29): — (Dashes indicate reactivities below the cut-off level (OD=0.050))
- IgE (OD) ([1]; serum of patient 30): — (Dashes indicate reactivities below the cut-off level (OD=0.050))
- IgE (OD) ([1]; serum of patient 31): — (Dashes indicate reactivities below the cut-off level (OD=0.050))
- IgE (OD) ([1]; serum of patient 32): — (Dashes indicate reactivities below the cut-off level (OD=0.050))
- IgE (OD) ([1]; serum of patient 33): — (Dashes indicate reactivities below the cut-off level (OD=0.050))
- IgE (OD) ([1]; serum of patient 34): — (Dashes indicate reactivities below the cut-off level (OD=0.050))
- IgE (OD) ([1]; serum of patient 35): — (Dashes indicate reactivities below the cut-off level (OD=0.050))
- IgE (OD) ([1]; serum of patient 36): — (Dashes indicate reactivities below the cut-off level (OD=0.050))
- IgE (OD) ([1]; serum of patient 37): — (Dashes indicate reactivities below the cut-off level (OD=0.050))
- IgE (OD) ([1]; serum of patient 38): — (Dashes indicate reactivities below the cut-off level (OD=0.050))
- IgE (OD) ([1]; serum of patient 39): — (Dashes indicate reactivities below the cut-off level (OD=0.050))
- IgE (OD) ([1]; serum of patient 40): — (Dashes indicate reactivities below the cut-off level (OD=0.050))
- IgE (OD) ([1]; serum of patient 41): — (Dashes indicate reactivities below the cut-off level (OD=0.050))
- IgE (OD) ([1]; serum of patient 42): — (Dashes indicate reactivities below the cut-off level (OD=0.050))
- IgE (OD) ([1]; serum of patient 43): — (Dashes indicate reactivities below the cut-off level (OD=0.050))
- IgE (OD) ([1]; serum of patient 44): — (Dashes indicate reactivities below the cut-off level (OD=0.050))
- IgE (OD) ([1]; serum of patient 45): — (Dashes indicate reactivities below the cut-off level (OD=0.050))
- IgE (OD) ([1]; serum of patient 46): — (Dashes indicate reactivities below the cut-off level (OD=0.050))
- IgE (OD) ([1]; serum of patient 47): — (Dashes indicate reactivities below the cut-off level (OD=0.050))
- IgE (OD) ([1]; serum of patient 48): — (Dashes indicate reactivities below the cut-off level (OD=0.050))
- IgE (OD) ([1]; serum of patient 49): — (Dashes indicate reactivities below the cut-off level (OD=0.050))
- IgE (OD) ([1]; serum of patient 50): — (Dashes indicate reactivities below the cut-off level (OD=0.050))
- IgE (OD) ([1]; serum of patient 51): — (Dashes indicate reactivities below the cut-off level (OD=0.050))
- IgE (OD) ([1]; serum of patient 52): — (Dashes indicate reactivities below the cut-off level (OD=0.050))
- IgE (OD) ([1]; serum of patient 53): — (Dashes indicate reactivities below the cut-off level (OD=0.050))
- IgE (OD) ([1]; serum of patient 54): — (Dashes indicate reactivities below the cut-off level (OD=0.050))
- IgE (OD) ([1]; serum of patient 55): — (Dashes indicate reactivities below the cut-off level (OD=0.050))
- IgE (OD) ([1]; serum of patient 56): — (Dashes indicate reactivities below the cut-off level (OD=0.050))
- IgE (OD) ([1]; serum of patient 57): — (Dashes indicate reactivities below the cut-off level (OD=0.050))
- IgE (OD) ([1]; serum of patient 58): — (Dashes indicate reactivities below the cut-off level (OD=0.050))
- IgE (OD) ([1]; serum of patient 59): — (Dashes indicate reactivities below the cut-off level (OD=0.050))
- IgE (OD) ([1]; serum of patient 60): — (Dashes indicate reactivities below the cut-off level (OD=0.050))
- mean wheal diameter ([2]; individual 1): 0 mm
- mean wheal diameter ([2]; individual 2): 0 mm
- mean wheal diameter ([2]; individual 3): 0 mm
- mean wheal diameter ([2]; individual 4): 0 mm
- mean wheal diameter ([2]; individual 5): 0 mm
- mean wheal diameter ([2]; individual 6 (allergic, without birch pollen allergy)): 0 mm
